Source: patent US20250339426A1, “GCN2 MODULATOR FOR TREATING CANCER” (HIBERCELL, INC., priority 2022, published 2025)

How the values were obtained:
[1] = tested on: OCI-AML2 (human AML cancer cells); test: In vivo tumor growth inhibition, OCI-AML2 xenograft; set-up: species or system NOD SCID mice
Method: OCI-AML2 (human AML cancer cells): Female 6-8 weeks old NOD SCID mice were inoculated subcutaneously on the right flank with OCI-AML2 tumor cells (5×10^6) in RPMI 1640 without serum for tumor development. The treatments were started when the mean tumor size reached approximately 149 mm^3 at Day 7 after cell inoculation and continued until end of study by twice daily oral gavage dosing of HC-7366 at listed doses (vehicle, 0.3 mg/kg HC-7366, 1 mg/kg HC-7366, 3 mg/kg HC-7366, 10 mg/kg HC-7366, or 30 mg/kg HC-7366, FIG. 19).
(§1) [formula] • 2.2.2 Tumor Measurements: The measurement of tumor size was conducted three times weekly with a caliper and recorded. The tumor volume (mm^3) was estimated using the formula: TV=a×b^2/2, where “a” and “b” is long and short diameters of a tumor, respectively. Tumor volume was calculated using the formula [tumor volume (mm^3)=π/6×length×width^2).
(§2) Regression was calculated using the formula=100×ΔT/T initial, if ΔT<0. Animals with 0 mm^3 tumor volume (no measurable tumor) for three consecutive measurements were considered as complete responders and animals with 50% tumor regressions were partial responders.

[2] = tested on: MFE280 (human endometrial cancer cells); test: In vivo tumor growth inhibition, MFE280 xenograft; set-up: species or system Athymic Nude-Foxn1nu mice
MOLM-16 xenograft tumors = test: Metabolomic analysis of MOLM-16 xenograft tumors; type: in vivo, mice; details: four days
Method: MOLM-16 xenograft tumors were treated with Vehicle or HC-7366 (0.3, 1, 3, 10 or 30 mg/kg) for four days, and snap frozen tumors were collected for metabolomic analysis (n=12). Metabolic analysis was performed at Metabolon on the LC/MS/MS and Polar LC platforms. Data was normalized to Vehicle group and Welch's two-sample t-test was performed for statistical analysis. Heat maps show metabolite levels normalized to vehicle control (FIGS. 90, 94, 102, and 107).

[3] = tested on: 786-O (human renal cell carcinoma cancer cells); test: In vivo tumor growth inhibition, 786-O xenograft; set-up: species or system BALB/c nude mice; details: HC-7366 single agent, 3 mg/kg twice daily (FIG. 58)
Method: 786-O (human renal cell carcinoma cancer cells): Female 6-8 weeks old BALB/c nude mice were inoculated subcutaneously on the right flank with 786-O tumor cells (5×10^6) in 0.1 ml of RPMI1640 medium without serum for tumor development. […] For the DC101 combination study, DC101 (murine monoclonal anti-VEGFR2 antibody) was dosed at 15 mg/kg twice a week by intraperitoneal injection.
as §1, §2
Female 6-8 weeks old BALB/c nude mice were inoculated subcutaneously on the right flank with 786-O tumor cells (5×10^6) in 0.1 ml of RPMI1640 medium without serum for tumor development (see Example 6). […]

FaDu cells = test: CTG viability assay, FaDu sgControl and sgGCN2 cells; type: cell-based, human; details: 72 or 96 hr
Method: FaDu cells were obtained from ATCC (#HTB-43) and were cultured in Eagle's Minimum Essential Medium, Catalog No. 30-2003 at 37° C. and 5% CO2. FaDu GCN2 CRISPR knockout cells (sgGCN2) or control cells (sgControl) were generated. For viability experiments, cells were plated in 384-well cell culture plates and incubated overnight. Compounds were diluted in 10 concentrations by 3-fold dilution in 384pp-plate using TECAN EVO200 to a final concentration ranging from […]. The plates were incubated for 72 or 96 hr and viability was assessed by adding CellTiter-Glo® 2.0 Assay according to the manufacturer's protocol (Promega, G9243) to each well. The plates were then incubated at RT for 30 min. The luminescent signals were read by Envision (PerkinElmer) plate reader and analyzed by Prism

ATF4 = ATF4 activity assay (HEK293-ATF4-Luc, luciferase); type: cell-based; details: 12.5 nM Halofuginone, 6 hours, FIG. 3
Method: HEK293-ATF4-Luc cells were with culture medium 1.5e^5 cells/mL and 25 μL of cell suspension was added into each well of 384-well cell culture plate (Corning, CLS3570-50EA) as designated and transferred into 37° C.-5% CO2 incubator (Thermo Scientific) overnight for cell attachment. HC-7366 was serially diluted to 11 concentrations by 3-fold dilution in DMSO and 25 nL of stock was plated into cell plate by Echo550 (Labcyte, Echo550), then incubated for 30 minutes at 37° C. After HC-7366 treatment, cells were treated with either DMSO or 12.5 nM Halofuginone to activate GCN2 for 6 hours. After 6 hours, 25 μL of One-Glo reagent (Promega, cat #: E6120) was added into each well to be detected (at 1:1 to culture medium). Then the plates were placed at room temperature for 10 min followed by luciferase luminescence reading on EnVision (PerkinElmer). The data were analyzed by XLfit (v5.3.1.3), equation 201.

[4] = tested on: HT1080 (human fibrosarcoma cells); test: In vivo tumor growth inhibition, HT1080 xenograft; set-up: species or system BALB/c nude mice; details: both 1 and 3 mg/kg, oral gavage
Method: HT1080 (human fibrosarcoma cells): Female 6-8 weeks old BALB/c nude mice were inoculated subcutaneously on the right flank with HT1080 tumor cells (1×10^7) in 0.1 ml of EMEM medium without serum for tumor development. The treatments were started when the mean tumor size reached approximately 109 mm^3 at Day 4 post inoculation and continued until end of study by oral gavage dosing of HC-7366 at listed doses (vehicle, 0.3 mg/kg HC-7366 BID (two times per day), 1 mg/kg HC-7366 BID, 3 mg/kg HC-7366 BID, 0.6 mg/kg HC-7366 QD (one time per day), 2 mg/kg HC-7366 QD, or 6 mg/kg HC-7366 QD, FIGS. 6-7).
as §1, §2

CNC(=O)c1ncn2cc(-c3c(F)ccc(NS(=O)(=O)c4cc(Cl)cnc4OC)c3F)ncc12 [HC-7366, 6-(3-((5-chloro-2-methoxypyridine)-3-sulfonamido)-2,6-difluorophenyl)-N-methylimidazo[1,5-a]pyrazine-1-carboxamide] was tested, and the TGI ([1]; 10 mg/kg twice daily oral) was “about 47%”, the TGI ([1]; 30 mg/kg twice daily oral) was ~51% and the tumor growth inhibition ([2]; HC-7366 0.5 mg/kg twice daily oral) was 45%. The tumor growth inhibition ([2]; HC-7366 2 mg/kg twice daily oral) was 53%, the “aspartate and cysteine levels” value (MOLM-16 xenograft tumors; 0.3-30 mg/kg) was “decreased” and the “glutathione levels (GSH and GSSG)” value (MOLM-16 xenograft tumors; 0.3-30 mg/kg) was “significantly reduced”. The “levels of most amino acids” value (MOLM-16 xenograft tumors; 0.3-30 mg/kg) was “significantly elevated”, the “metabolites involved in pyrimidine synthesis” value (MOLM-16 xenograft tumors; 0.3-30 mg/kg) was “significantly reduced” and the γ-glutamyl-amino acids (MOLM-16 xenograft tumors; 0.3-30 mg/kg) was “enhanced”. For the same compound, the “aspartate metabolism and polyamine-related metabolites (putrescine, spermine, MTA)” value (MOLM-16 xenograft tumors; all doses) was “significantly reduced”, the TGI % [3] was ~78% and the viability (FaDu cells; FaDu control cells) was “potently reduced viability”. The viability response (FaDu cells; GCN2 CRISPR knockout cells) was “reversed”, the “ATF4 activity, cells treated with HC-7366 and Halofuginone” value (ATF4) was “GCN2 inhibitory effect” and the tumor growth inhibition [4] was “up to 80%”.
